Patent publication US20070141092A1, “BIGUANIDE COMPOSITION AND METHOD OF TREATMENT AND PREVENTION OF VIRAL INFECTIONS” (priority 2005, published 2007)

Columns and labels:
Type in all cases: cell-based
[1] = system: Herpes simplex virus type 1; test: Viral Suspension Assay, HSV-1 (CPE on rabbit kidney indicator cells)
Protocol: (§1) The Viral Suspension Assay was used to evaluate the antiviral properties of Alexidine against Herpes simplex virus type 1 when exposed in suspension for 1, 2, 5, and 10 minutes. The presence of virus (infectivity) was determined by monitoring the virus specific cytopathic effect (CPE) on an appropriate indicator cell line, rabbit kidney. Results are reported as Percent (%) Reduction in virus titer as compared to the corresponding virus control titer (Table 1). The titer of the virus controls were 7.5 log10 following the one minute exposure time; 7.0 log10 following the two minute exposure time; and 7.75 log10 following both the five and ten minute exposure times.

Adenovirus Type-4 = test: Viral Suspension Assay, Adenovirus Type-4; details: both 30 ppm and 99 ppm
Protocol: as §1, with “Adenovirus Type-4, Adenovirus Type-8 and Adenovirus Type-19 and Cytomegalovirus” for “Herpes simplex virus type 1”

Adenovirus Type-8 = test: Viral Suspension Assay, Adenovirus Type-8; details: both 30 ppm and 99 ppm
Protocol: as §1, with “Adenovirus Type-4, Adenovirus Type-8 and Adenovirus Type-19 and Cytomegalovirus” for “Herpes simplex virus type 1”

Cytomegalovirus = test: Viral Suspension Assay, Cytomegalovirus; details: both 30 ppm and 99 ppm
Protocol: as §1, with “Adenovirus Type-4, Adenovirus Type-8 and Adenovirus Type-19 and Cytomegalovirus” for “Herpes simplex virus type 1”

For `CCCCC(CC)CNC(=N)NC(=N)NCCCCCCNC(=N)NC(=N)NCC(CC)CCCC` (centres unmarked) [Alexidine, 1,1′-hexamethylene-bis[5-(2-ethylhexyl)biguanide]], the “Effectiveness against herpes simplex type-1 virus (in words)” value ([1]; both 30 ppm and 99 ppm) was “effective agents”, the “Overall activity against Herpes Simplex-1 (in words)” value ([1]; summary statement) was “potent antimicrobial agent” and the “Effectiveness against Adenovirus Type-4 (in words)” value (Adenovirus Type-4) was “somewhat effective”. The “Effectiveness against Adenovirus Type-8 (in words)” value (Adenovirus Type-8) was “somewhat effective” and the “Effectiveness against Cytomegalovirus (in words)” value (Cytomegalovirus) was “somewhat effective”.
